Assay results reported in US20240238423A9, “TETRAHYDROISOQUINOLINE HETEROBIFUNCTIONAL BCL-XL DEGRADERS” (Treeline Biosciences, Inc., priority 2022, published 2024).
Where two headings read alike, the source gives them in different places.

Biological target: T1, Human BCL-XL protein (N-terminal HiBiT tagged BCL-XL in HT1080 cells) (Homo sapiens, UniProt Q07817)
T1 construct: expressed in transfected cells; host or cells: HT-1080 (ATCC CCL-121), stably transduced with lentivirus pLV-UBC-N-HiBiT-BCL-XL-PGK-puro and selected with puromycin
T1 sequence (Q07817 whole entry): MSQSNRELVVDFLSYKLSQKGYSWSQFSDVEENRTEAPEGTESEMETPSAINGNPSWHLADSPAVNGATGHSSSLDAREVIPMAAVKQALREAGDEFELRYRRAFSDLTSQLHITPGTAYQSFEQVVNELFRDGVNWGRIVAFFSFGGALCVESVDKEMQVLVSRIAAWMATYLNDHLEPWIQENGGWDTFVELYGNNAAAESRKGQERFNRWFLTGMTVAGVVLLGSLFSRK
Test: HiBiT based degradation assay
Format: cell-based
Conditions: HT1080 cells expressing HiBiT-BCL-XL; for Ymin (24 h) / Ymin (6 h): BCL-XL degradation normalized with DMSO control; for DC50: BCL-XL degradation
Procedure, shortened: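 This HiBiT degradation assay measured loss of BCL-XL in HT1080 cells that stably express an N-terminal HiBiT-BCL-XL fusion delivered by lentivirus. Cells were added to compound-spotted 384-well plates, and luminescence was read on a PHERAstar FSX reader. Signal was expressed relative to DMSO controls, curves were fitted by four-parameter logistic regression, and for hook-shaped curves the Ymin point served as the bottom plateau when calculating EC50.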

Row | Ymin (24 h) | DC50 (24 h, read-out: EC50 (24 h)) | Ymin (6 h) | DC50 (6 h, read-out: EC50 (6 h)) | SMILES
1 | B (50% ≤ Ymin < 70%) | < 0.1 µM | – | – | Cc1c(O[C@H]2CC[C@H](CCCC(=O)N3CCN(c4cccc5c(C6CCC(=O)NC6=O)nn(C)c45)CC3)CC2)cccc1-c1ccc(N2CCc3cccc(C(=O)Nc4nc5ccccc5s4)c3C2)nc1C(=O)O (stereo partly shown) [Compound 214a, 6-(8-(benzo[d]thiazol-2-ylcarbamoyl)-3,4-dihydroisoquinolin-2(1H)-yl)-3-(3-(((1s,4r)-4-(4-(4-(3-(2,6-dioxopiperidin-3-yl)-1-methyl-1H-indazol-7-yl)piperazin-1-yl)-4-oxobutyl)cyclohexyl)oxy)-2-methylphenyl)picolinic acid]
2 | C (Ymin ≥ 70%) | < 0.1 µM | – | – | Cc1c(O[C@H]2CC[C@H](CCN3CCN(c4cccc5c(C6CCC(=O)NC6=O)nn(C)c45)CC3)CC2)cccc1-c1ccc(N2CCc3cccc(C(=O)Nc4nc5ccccc5s4)c3C2)nc1C(=O)O (stereo partly shown) [Compound 215a, 6-(8-(benzo[d]thiazol-2-ylcarbamoyl)-3,4-dihydroisoquinolin-2(1H)-yl)-3-(3-(((1r,4r)-4-(2-(4-(3-(2,6-dioxopiperidin-3-yl)-1-methyl-1H-indazol-7-yl)piperazin-1-yl)ethyl)cyclohexyl)oxy)-2-methylphenyl)picolinic acid]
3 | B (50% ≤ Ymin < 70%) | < 0.1 µM | – | – | Cc1c(OCCCC2CCN([C@@H](C)C(=O)Nc3cccc4c(C5CCC(=O)NC5=O)nn(C)c34)CC2)cccc1-c1ccc(N2CCc3cccc(C(=O)Nc4nc5ccccc5s4)c3C2)nc1C(=O)O (stereo partly drawn) [Compound 216a, 6-(8-(benzo[d]thiazol-2-ylcarbamoyl)-3,4-dihydroisoquinolin-2(1H)-yl)-3-(3-(3-(1-((2S)-1-((3-(2,6-dioxopiperidin-3-yl)-1-methyl-1H-indazol-7-yl)amino)-1-oxopropan-2-yl)piperidin-4-yl)propoxy)-2-methylphenyl)picolinic acid]
4 | B (50% ≤ Ymin < 70%) | < 0.1 µM | – | – | Cc1c(OCCCC2CCN([C@H](C)C(=O)Nc3cccc4c(C5CCC(=O)NC5=O)nn(C)c34)CC2)cccc1-c1ccc(N2CCc3cccc(C(=O)Nc4nc5ccccc5s4)c3C2)nc1C(=O)O (stereo partly drawn) [Compound 216b, 6-(8-(benzo[d]thiazol-2-ylcarbamoyl)-3,4-dihydroisoquinolin-2(1H)-yl)-3-(3-(3-(1-((2R)-1-((3-(2,6-dioxopiperidin-3-yl)-1-methyl-1H-indazol-7-yl)amino)-1-oxopropan-2-yl)piperidin-4-yl)propoxy)-2-methylphenyl)picolinic acid]
5 | B (50% ≤ Ymin < 70%) | 0.1 to 1 µM | C (Ymin ≥ 70%) | 1 to 10 µM | Cc1c(OCCCN2CCN(CC(=O)Nc3cccc4c(C5CCC(=O)NC5=O)nn(C)c34)[C@@H](C(F)(F)F)C2)cccc1-c1ccc(N2CCc3cccc(C(=O)Nc4nc5ccccc5s4)c3C2)nc1C(=O)O (stereo partly drawn) [Compound 218a, 6-(8-(benzo[d]thiazol-2-ylcarbamoyl)-3,4-dihydroisoquinolin-2(1H)-yl)-3-(3-(3-((3R)-4-(2-((3-(2,6-dioxopiperidin-3-yl)-1-methyl-1H-indazol-7-yl)amino)-2-oxoethyl)-3-(trifluoromethyl)piperazin-1-yl)propoxy)-2-methylphenyl)picolinic acid]
6 | C (Ymin ≥ 70%) | 0.1 to 1 µM | C (Ymin ≥ 70%) | 1 to 10 µM | Cc1c(OCCCN2CCN(CC(=O)Nc3cccc4c(C5CCC(=O)NC5=O)nn(C)c34)[C@H](C(F)(F)F)C2)cccc1-c1ccc(N2CCc3cccc(C(=O)Nc4nc5ccccc5s4)c3C2)nc1C(=O)O (stereo partly drawn) [Compound 218b, 6-(8-(benzo[d]thiazol-2-ylcarbamoyl)-3,4-dihydroisoquinolin-2(1H)-yl)-3-(3-(3-((3S)-4-(2-((3-(2,6-dioxopiperidin-3-yl)-1-methyl-1H-indazol-7-yl)amino)-2-oxoethyl)-3-(trifluoromethyl)piperazin-1-yl)propoxy)-2-methylphenyl)picolinic acid]
7 | A (Ymin < 50%) | < 0.1 µM | – | – | Cc1c(OCC[C@@H]2CCN(CC(=O)Nc3ccc4c(C5CCC(=O)NC5=O)nn(C)c4c3)C2)cccc1-c1ccc(N2CCc3cccc(C(=O)Nc4nc5ccccc5s4)c3C2)nc1C(=O)O (stereo partly drawn) [Compound 219a, 6-[8-(1,3-benzothiazol-2-ylcarbamoyl)-3,4-dihydro-1H-isoquinolin-2-yl]-3-[3-[2-[(3S)-1-[2-[[3-(2,6-dioxo-3-piperidyl)-1-methyl-indazol-6-yl]amino]-2-oxo-ethyl]pyrrolidin-3-yl]ethoxy]-2-methyl-phenyl]pyridine-2-carboxylic acid]

Continued, compound first:

Row | SMILES | Ymin (24 h) | DC50 (24 h, read-out: EC50 (24 h)) | Ymin (6 h) | DC50 (6 h, read-out: EC50 (6 h))
8 | Cc1c(OCCC[C@@H]2CCCN(CC(=O)Nc3ccc4c(C5CCC(=O)NC5=O)nn(C)c4c3)C2)cccc1-c1ccc(N2CCc3cccc(C(=O)Nc4nc5ccccc5s4)c3C2)nc1C(=O)O (stereo partly drawn) [Compound 207a, 6-(8-(benzo[d]thiazol-2-ylcarbamoyl)-3,4-dihydroisoquinolin-2(1H)-yl)-3-(3-(3-((3S)-1-(2-((3-(2,6-dioxopiperidin-3-yl)-1-methyl-1H-indazol-6-yl)amino)-2-oxoethyl)piperidin-3-yl)propoxy)-2-methylphenyl) picolinic acid] | A (Ymin < 50%) | < 0.1 µM | – | –
9 | Cc1c(OCCC[C@H]2CCCN(CC(=O)Nc3ccc4c(C5CCC(=O)NC5=O)nn(C)c4c3)C2)cccc1-c1ccc(N2CCc3cccc(C(=O)Nc4nc5ccccc5s4)c3C2)nc1C(=O)O (stereo partly drawn) [Compound 207b, 6-(8-(benzo[d]thiazol-2-ylcarbamoyl)-3,4-dihydroisoquinolin-2(1H)-yl)-3-(3-(3-((3R)-1-(2-((3-(2,6-dioxopiperidin-3-yl)-1-methyl-1H-indazol-6-yl)amino)-2-oxoethyl)piperidin-3-yl)propoxy)-2-methylphenyl)picolinic acid] | A (Ymin < 50%) | < 0.1 µM | B (50% ≤ Ymin < 70%) | < 0.1 µM
10 | Cc1c(Oc2ccc(CCN3CCN(c4ccc5c(C6CCC(=O)NC6=O)nn(C)c5c4)CC3)cc2)cccc1-c1ccc(N2CCc3cccc(C(=O)Nc4nc5ccccc5s4)c3C2)nc1C(=O)O (stereo not shown) [Compound 208, 6-[8-(1,3-benzothiazol-2-ylcarbamoyl)-3,4-dihydro-1H-isoquinolin-2-yl]-3-[3-[4-[2-[4-[3-(2,6-dioxo-3-piperidyl)-1-methyl-indazol-6-yl]piperazin-1-yl]ethyl]phenoxy]-2-methyl-phenyl]pyridine-2-carboxylic acid] | A (Ymin < 50%) | < 0.1 µM | – | –
11 | Cc1c(OCC(F)(F)CN2C[C@@H](C)N(CC(=O)Nc3cccc4c(C5CCC(=O)NC5=O)nn(C)c34)[C@@H](C)C2)cccc1-c1ccc(N2CCc3cccc(C(=O)Nc4nc5ccccc5s4)c3C2)nc1C(=O)O (stereo partly drawn) [Compound 209a, 6-[8-(1,3-benzothiazol-2-ylcarbamoyl)-3,4-dihydro-1H-isoquinolin-2-yl]-3-[3-[3-[(3R,5S)-4-[2-[[3-(2,6-dioxo-3-piperidyl)-1-methyl-indazol-7-yl]amino]-2-oxo-ethyl]-3,5-dimethyl-piperazin-1-yl]-2,2-difluoro-propoxy]-2-methyl-phenyl]pyridine-2-carboxylic acid] | B (50% ≤ Ymin < 70%) | 0.1 to 1 µM | – | –
12 | Cc1c(O[C@H]2CC[C@H](CCN3CCN(c4ccc5c(C6CCC(=O)NC6=O)nn(C)c5c4)CC3)CC2)cccc1-c1ccc(N2CCc3cccc(C(=O)Nc4nc5ccccc5s4)c3C2)nc1C(=O)O (stereo partly shown) [Compound 211a, 6-(8-(benzo[d]thiazol-2-ylcarbamoyl)-3,4-dihydroisoquinolin-2(1H)-yl)-3-(3-(((1r,4r)-4-(2-(4-(3-(2,6-dioxopiperidin-3-yl)-1-methyl-1H-indazol-6-yl)piperazin-1-yl)ethyl)cyclohexyl)oxy)-2-methylphenyl)picolinic acid] | B (50% ≤ Ymin < 70%) | < 0.1 µM | – | –
13 | Cc1c(O[C@H]2CC[C@H](CC(F)(F)CN3CCN(c4ccc5c(C6CCC(=O)NC6=O)nn(C)c5c4)CC3)CC2)cccc1-c1ccc(N2CCc3cccc(C(=O)Nc4nc5ccccc5s4)c3C2)nc1C(=O)O (stereo partly shown) [Compound 212a, 6-(8-(benzo[d]thiazol-2-ylcarbamoyl)-3,4-dihydroisoquinolin-2(1H)-yl)-3-(3-(((1r,4r)-4-(3-(4-(3-(2,6-dioxopiperidin-3-yl)-1-methyl-1H-indazol-6-yl)piperazin-1-yl)-2,2-difluoropropyl)cyclohexyl)oxy)-2-methylphenyl)picolinic acid] | B (50% ≤ Ymin < 70%) | < 0.1 µM | – | –
14 | Cc1c(OCCCCC2CCN(CC(=O)Nc3cccc4c(C5CCC(=O)NC5=O)nn(C)c34)CC2)cccc1-c1ccc(N2CCc3cccc(C(=O)Nc4nc5ccccc5s4)c3C2)nc1C(=O)O (stereo not shown) [Compound 213, 6-(8-(benzo[d]thiazol-2-ylcarbamoyl)-3,4-dihydroisoquinolin-2(1H)-yl)-3-(3-(4-(1-(2-((3-(2,6-dioxopiperidin-3-yl)-1-methyl-1H-indazol-7-yl)amino)-2-oxoethyl)piperidin-4-yl)butoxy)-2-methylphenyl)picolinic acid] | A (Ymin < 50%) | 0.1 to 1 µM | C (Ymin ≥ 70%) | 1 to 10 µM
15 | Cc1c(OCCCCCCCCN2CCN(c3cccc4c(C5CCC(=O)NC5=O)nn(C)c34)CC2)cccc1-c1ccc(N2CCc3cccc(C(=O)Nc4nc5ccccc5s4)c3C2)nc1C(=O)O (stereo not shown) [Compound 217, 6-[8-(1,3-benzothiazol-2-ylcarbamoyl)-3,4-dihydro-1H-isoquinolin-2-yl]-3-[3-[8-[4-[3-(2,6-dioxo-3-piperidyl)-1-methyl-indazol-7-yl]piperazin-1-yl]octoxy]-2-methyl-phenyl]pyridine-2-carboxylic acid] | B (50% ≤ Ymin < 70%) | < 0.1 µM | B (50% ≤ Ymin < 70%) | < 0.1 µM
